Measured values: patent publication US6440899B1, “Cyclohexenonedioxothiochromanoyl derivatives” (BASF Aktiengesellschaft, priority 1998, dated 2002)

Legend:
Experiment in all cases: greenhouse post-emergence herbicidal test
Assay type in all cases: in vivo
Conditions in all cases: applied post-emergence, rates of application of 0.5 and 0.25 kg/ha, respectively
Setaria viridis = system: Setaria viridis
Description: (§1) The seeds of the test plants were sown separately for each species. For the post-emergence treatment, the test plants were first grown to a height of 3 to 15 cm, depending on the plant habit, and only then treated with the active compounds which had been suspended or emulsified in water. For this purpose, the test plants were either sown directly and grown in the same containers, or they were first grown separately as seedlings and transplanted into the test containers a few days prior to treatment. The rate of application for the post-emergence treatment was 0.5 or 0.25 kg/ha of a.s. (active substance). Depending on the species, the plants were kept at 10-25° C. or 20-35° C. The test period extended over 2 to 4 weeks. During this time, the plants were tended, and their response to the individual treatments was evaluated. Evaluation was carried out using a scale from 0 to 100. 100 means no emergence of the plants, or complete destruction of at least the aerial parts, and 0 means no damage, or normal course of growth. The plants used in the greenhouse experiments belonged to the following species: [table]

Galium aparine = system: Galium aparine
Description: as §1

Solanum nigrum = system: Solanum nigrum
Description: as §1

Chenopodium album = system: Chenopodium album
Description: as §1

Setaria faberi = system: Setaria faberi
Description: as §1

Echinochloa crus-galli = system: Echinochloa crus-galli
Description: as §1

Sinapis alba = system: Sinapis alba
Description: as §1

Measured: herbicidal activity

Cc1c(C(=O)C2=C(Cl)C(C)(C)C(=O)C(C)(C)C2=O)ccc2c1S(=O)(=O)CCS2(=O)=O [Compound 4.1, 1-Chloro-2-[(8-methyl-2,3-dihydro-1,1,4,4-tetraoxobenz[1,4]dithiyn-7-yl)carbonyl]-4,4,6,6-tetramethyl-1-cyclohexene-3,5-dione]
very good activity: all assays above
